Results reported in US11406589B2, “Cutibacterium granulosum strain, and composition comprising such strain or culture thereof for preventing or treating acne” (GENOME AND COMPANY, priority 2018, dated 2022).

How the values were obtained:
[1] = system: aquaporin; experiment: Skin moisturizing function: aquaporin RNA expression in HaCaT cell line; type: cell-based, human; settings: 24 hours, retinoic acid 1 μM (positive control)
Method: (§1) To investigate a function for a skin moisturizing effect by GENSCO2 fermented filtrates, it was confirmed that the fermented filtrates of GENSCO2 were treated to the HaCaT cell line by % to the cell culture solution, and then were reacted for 24 hours to confirm the expression of HAS3 (hyaluronic acid synthase) and aquaporin which were markers of the skin moisturizing function on RNA.

[2] = system: claudin-1; experiment: Skin barrier function: claudin-1 RNA expression in HaCaT cell line; type: cell-based, human; settings: 24 hours, retinoic acid 1 μM (positive control)
[3] = system: filaggrin; experiment: Skin barrier function: filaggrin RNA expression in HaCaT cell line; type: cell-based, human; settings: 24 hours, retinoic acid 1 μM (positive control)
[4] = system: HAS3 (hyaluronic acid synthase); experiment: Skin moisturizing function: HAS3 RNA expression in HaCaT cell line; type: cell-based, human; settings: 24 hours, retinoic acid 1 μM (positive control)
Method: as §1

[5] = system: Cutibacterium acnes ATCC 6919; experiment: Growth inhibition, overlay clear zone test; type: cell-based; settings: overlay on RCM agar, about 72 hours; triclosan positive control 200 mg/ml
Excerpt: (§2) The effect of growth inhibition of S. aureus and C. acnes was confirmed by observing formation of a clear zone. […] The experiment was progressed, expecting that S. aureus and C. acnes around Cutibacterium granulosum GENSC02 could not grow and they became transparent, if Cutibacterium granulosum GENSC02 had the effect of inhibiting the growth of bacteria. The Cutibacterium granulosum GENSC02 culture broth was collected with a platinum loop and was anaerobically cultured in a thin RCM agar plate at 37° C. for 72 hours by drawing a line about 2.5 cm. After confirming that Cutibacterium granulosum GENSC02 sufficiently grew, S. aureus and C. acnes strains adjusted to 10^4 cfu/ml were inoculated in 10 ml RCM agar at about 45° C. which was not yet solidified, and they were well suspended before the medium was hardened, and they were evenly solidified by pouring them on the agar plate in which Cutibacterium granulosum GENSC02 grew. In the solidified agar plate, S. aureus and C. acnes were further cultured anaerobically at 37° C. for about 40 hours and about 72 hours, respectively, to observe the size of the clear zone appearing around Cutibacterium granulosum GENSC02. As the negative control group, phosphate-buffered saline (PBS) was used, and as the positive control group, triclosan was used, and S. aureus and C. acnes were treated at an amount of 10 mg/ml and 200 mg/ml, respectively.

[6] = system: Staphylococcus aureus KCTC 1621; experiment: Growth inhibition, overlay clear zone test; type: cell-based; settings: overlay on RCM agar, about 40 hours; triclosan positive control 10 mg/ml
Excerpt: as §2

Compound | expression of aquaporin [1] | expression of claudin-1 [2] [times] | expression of filaggrin [3] [times] | expression of HAS3 (hyaluronic acid synthase) [4] | growth inhibition of C. acnes (clear zone) [5] | growth inhibition of S. aureus (clear zone) [6]
CC1=C(/C=C/C(C)=C/C=C/C(C)=C/C(=O)O)C(C)(C)CCC1 [retinoic acid] | 2˜4 times | 1.5 | 1.5 | 2˜4 times | – | –
Oc1cc(Cl)ccc1Oc1ccc(Cl)cc1Cl [triclosan] | – | – | – | – | much smaller area than GENSC02 treatment | much smaller area than GENSC02 treatment
